Test: Qualitative analysis of AAI and metabolites in bile of bile duct-cannulated rats
Assay type: in vivo, F344 rats
Details: 30 mg/kg AAI oral, bile collected 0–3 h, 3–6 h, 6–9 h, 9–12 h, qualitative UHPLC-Q-Exactive
Experimental: Ten 6-week-old F344 rats were divided into a control group (n = 2) and a treatment group (n = 8), with equal numbers of males and females in each group. During the experiment, rats were fasted and had access to water ad libitum. Rats in the control group were administered with 0.5% CMC-Na suspension via gastric gavage. For the treatment group, rats were administered with 30 mg/kg of AAI by the same route. Rats underwent bile duct cannulation for bile sample collection. Bile samples were collected at consecutive intervals of 0–3 h, 3–6 h, 6–9 h and 9–12 h after administration.
For each bile sample, a 200 μL aliquot of bile was mixed with an equal volume of a methanol/acetonitrile (1:1, v/v) solution. After vortexing for 2 min, the mixture was centrifuged at 13,200 rpm for 10 min. The precipitate was discarded, and the supernatant was dried under nitrogen gas. The dried residue was reconstituted in 80 μL of methanol, vortexed for 2 min, and centrifuged at 13,200 rpm for 15 min. The resulting supernatant was used for further analysis.
Ultra-high-performance liquid chromatography (UHPLC) coupled with a Q-Exactive orbitrap mass spectrometer (Thermo Fisher Scientific, San Jose, CA, USA) was used to analyzed the metabolites of AAI in rat bile. An ACQUITY UPLC BEH C18 column (2.1 mm × 50 mm, 1.7 μm, Waters, Milford, MA, USA) was employed for chromatographic separation. The mobile phase consisted of water containing 5 mmol/L ammonium formate/0.1% formic acid (A) and acetonitrile (B).
Metabolites in bile samples were analyzed using electrospray ionization (ESI) in both positive and negative ion modes. The spray voltage was set at 3500 V for positive mode and 3000 V for negative mode. The ion transfer tube temperature was maintained at 350 °C with a vaporizer temperature of 300 °C. The sheath gas and auxiliary gas flow rates were 35 Arb and 10 Arb. Full-scan MS data were acquired at a resolution of 35,000 within the mass range of m/z 100–1200. For MS/MS analysis, data-dependent acquisition (DDA) was performed at a resolution of 17,500 using high-energy collision dissociation (HCD). Post-acquisition data was imported into Compound Discoverer 2.1 software to identify AAI metabolites. Blank matrices were processed alongside samples to exclude the background interferences.

SMILES: COc1cccc2c1cc([N+](=O)[O-])c1c(C(=O)OC3OC(C(=O)O)C(O)C(O)C3O)cc3c(c12)OCO3 (stereo not drawn) [AAI-O-glucuronide]
- detection in bile (biliary excretion): detectable in bile collected during four consecutive periods after oral administration

SMILES: COc1cccc2c1c(O)c1c3c(cc4c(c32)OCO4)C(=O)N1 [ALI-9-OH, 9-hydroxyaristolactam I]
- detection in bile (biliary excretion): detected in bile samples

SMILES: COc1cccc2c1cc1c3c(cc4c(c32)OCO4)C(=O)N1O [ALI-N-OH, N-hydroxyaristolactam I]
- detection in bile (biliary excretion): detected in bile samples
